Measured values reported in patent publication US7332501B2, “Indol-3-yl-carbonyl-spiro-piperidine derivatives as V1a receptor antagonists” (Hoffmann-La Roche Inc., priority 2005, dated 2008).

Target: T1, human V1a receptor (Homo sapiens, UniProt P37288)
T1 construct: expressed in transfected cells; host or cells: HEK293 cells, transiently transfected; cell membranes
Assay: human V1a receptor binding (3H-Vasopressin SPA, HEK293 membranes)
Details: displacement of 4 nM 3H-Vasopressin, membranes of HEK293 cells transiently transfected with human V1a receptor; Ki from IC50 by Cheng-Prussoff
Outline: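 Ki derived by Cheng-Prusoff from IC50 curves normalised to specific binding. Serially diluted compounds (in 2% DMSO) competed with 3H-vasopressin (4 nM working solution) for 1 h at room temperature on SPA beads bearing membranes of transiently transfected HEK293 cells; unlabelled vasopressin defined non-specific counts.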

T1 sequence (P37288 whole entry): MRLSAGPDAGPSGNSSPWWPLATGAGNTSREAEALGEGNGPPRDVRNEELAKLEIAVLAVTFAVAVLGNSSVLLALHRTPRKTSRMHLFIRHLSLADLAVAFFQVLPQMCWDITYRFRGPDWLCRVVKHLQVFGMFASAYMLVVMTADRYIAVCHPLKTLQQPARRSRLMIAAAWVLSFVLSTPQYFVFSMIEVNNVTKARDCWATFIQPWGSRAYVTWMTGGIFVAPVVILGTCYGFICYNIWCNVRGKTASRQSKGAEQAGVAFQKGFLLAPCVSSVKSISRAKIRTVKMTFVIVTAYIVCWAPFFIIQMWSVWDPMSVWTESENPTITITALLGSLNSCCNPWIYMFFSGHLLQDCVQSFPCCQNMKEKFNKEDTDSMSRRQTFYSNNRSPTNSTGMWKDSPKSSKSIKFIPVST

Row | Compound | Ki [nM]
1 | COCC1(Cn2cc(C(=O)N3CCC4(CC3)OC(=O)c3cc(F)ccc34)c3ccc(Cl)cc32)CC1 [Example 190, 1′-[(6-Chloro-1-{[1-(methoxymethyl)cyclopropyl]methyl}-1H-indol-3-yl)carbonyl]-5-fluoro-3H-spiro[2-benzofuran-1,4′-piperidin]-3-one] | 2.6
2 | O=C(Cn1cc(C(=O)N2CCC3(CC2)OC(=O)c2cc(F)ccc23)c2ccc(Cl)cc21)c1cccc(F)c1 [Example 144, 1′-({6-Chloro-1-[2-(3-fluorophenyl)-2-oxoethyl]-1H-indol-3-yl}carbonyl)-5-fluoro-3H-spiro[2-benzofuran-1,4′-piperidin]-3-one] | 2
3 | O=C1OC2(CCN(C(=O)c3c(C(=O)N4CCCCC4)[nH]c4cc(Cl)ccc34)CC2)c2ccc(F)cc21 [Example 33, 1′-{[6-chloro-2-(piperidin-1-ylcarbonyl)-1H-indol-3-yl]carbonyl}-5-fluoro-3H-spiro[2-benzofuran-1,4′-piperidin]-3-one] | 10.8
4 | COCc1ncc(Cn2cc(C(=O)N3CCC4(CC3)OC(=O)c3cc(F)ccc34)c3ccc(Cl)cc32)c(N)n1 [Example 162, 1′-[(1-{[4-Amino-2-(methoxymethyl)pyrimidin-5-yl]methyl}-6-chloro-1H-indol-3-yl)carbonyl]-5-fluoro-3H-spiro[2-benzofuran-1,4′-piperidin]-3-one] | 65.3
5 | O=C1OC2(CCN(C(=O)c3cn(CCC4CCOCC4)c4cc(Cl)ccc34)CC2)c2ccccc21 [Example 196, 1′-({6-Chloro-1-[2-(tetrahydro-2H-pyran-4-yl)ethyl]-1H-indol-3-yl}carbonyl)-3H-spiro[2-benzofuran-1,4′-piperidin]-3-one] | 1.4
6 | CC(C)(C)OC(=O)Cn1cc(C(=O)N2CCC3(CC2)OC(=O)c2cc(F)ccc23)c2ccc(Cl)cc21 [Example 112, tert-Butyl {6-chloro-3-[(5-fluoro-3-oxo-1′H,3H-spiro[2-benzofuran-1,4′-piperidin]-1′-yl)carbonyl]-1H-indol-1-yl}acetate] | 2
7 | O=C1OC2(CCN(C(=O)c3cn(Cc4cccc(F)c4)c4cc(Cl)ccc34)CC2)c2ccc(Br)cc21 [Example 151, 5-Bromo-1′-{[6-chloro-1-(3-fluorobenzyl)-1H-indol-3-yl]carbonyl}-3H-spiro[2-benzofuran-1,4′-piperidin]-3-one] | 4.8
8 | CN(C)CCn1cc(C(=O)N2CCC3(CC2)COc2ccccc23)c2ccc(Cl)cc21 [Example 81, 2-[6-chloro-3-(1′H-spiro[1-benzofuran-3,4′-piperidin]-1′-ylcarbonyl)-1H-indol-1-yl]-N,N-dimethylethanamine] | 5
9 | O=C1OC2(CCN(C(=O)c3cn(Cc4ccncc4)c4cc(Cl)ccc34)CC2)c2ccccc21 [Example 168, 1′-{[6-Chloro-1-(pyridin-4-ylmethyl)-1H-indol-3-yl]carbonyl}-3H-spiro[2-benzofuran-1,4′-piperidin]-3-one] | 2.4
10 | Cc1cc(Cn2cc(C(=O)N3CCC4(CC3)OC(=O)c3cc(F)ccc34)c3ccc(Cl)cc32)ccn1 [Example 161, 1′-({6-Chloro-1-[(2-methylpyridin-4-yl)methyl]-1H-indol-3-yl}carbonyl)-5-fluoro-3H-spiro[2-benzofuran-1,4′-piperidin]-3-one] | 2.2
11 | Cc1cc(Cn2cc(C(=O)N3CCC4(CC3)OC(=O)c3cc(F)ccc34)c3ccc(Cl)cc32)c(Cl)nn1 [Example 165, 1′-({6-Chloro-1-[(3-chloro-6-methylpyridazin-4-yl)methyl]-1H-indol-3-yl}carbonyl)-5-fluoro-3H-spiro[2-benzofuran-1,4′-piperidin]-3-one] | 4.3
12 | Cc1c(C(=O)N2CCC3(CC2)OC(=O)c2c(F)cccc23)c2ccccc2n1Cc1ccccc1 [Example 11, 1′-[(1-benzyl-2-methyl-1H-indol-3-yl)carbonyl]-4-fluoro-3H-spiro[2-benzofuran-1,4′-piperidin]-3-one] | 11.2
13 | Cc1cc2c(C(=O)N3CCC4(CC3)OC(=O)c3ccccc34)cn(CC(=O)N(C)C)c2cc1Cl [Example 120, 2-{6-Chloro-5-methyl-3-[(3-oxo-1′H,3H-spiro[2-benzofuran-1,4′-piperidin]-1′-yl)carbonyl]-1H-indol-1-yl}-N,N-dimethylacetamide] | 2.7
14 | O=C(c1cn(Cc2cc(F)cc(F)c2)c2cc(Cl)ccc12)N1CCC2(CC1)CNc1ccccc12 [Example 93] | 13.8

Other lines, results leading:

Row | Ki [nM] | Compound
15 | 3 | CC(C)(C)OC(=O)N1CCOC(Cn2cc(C(=O)N3CCC4(CC3)OC(=O)c3ccccc34)c3ccc(Cl)cc32)C1 (stereo not shown) [Example 197, tert-Butyl 2-({6-chloro-3-[(3-oxo-1′H,3H-spiro[2-benzofuran-1,4′-piperidin]-1′-yl)carbonyl]-1H-indol-1-yl}methyl)morpholine-4-carboxylate]
16 | 1.4 | O=C(c1cn(Cc2cncnc2)c2cc(Cl)ccc12)N1CCC2(CC1)OCc1ccccc12 [Example 235]
17 | 4 | Cc1nc(Cn2cc(C(=O)N3CCC4(CC3)OC(=O)c3cc(F)ccc34)c3ccc(Cl)cc32)c(C2CC2)o1 [Example 182, 1′-({6-Chloro-1-[(5-cyclopropyl-2-methyl-1,3-oxazol-4-yl)methyl]-1H-indol-3-yl}carbonyl)-5-fluoro-3H-spiro[2-benzofuran-1,4′-piperidin]-3-one]
18 | 2.3 | O=C1OC2(CCN(C(=O)c3cn(Cc4cnccn4)c4cc(Cl)ccc34)CC2)c2ccc(F)cc21 [Example 173, 1′-{[6-Chloro-1-(pyrazin-2-ylmethyl)-1H-indol-3-yl]carbonyl}-5-fluoro-3H-spiro[2-benzofuran-1,4′-piperidin]-3-one]
19 | 1.2 | O=C(c1cn(Cc2cc(F)cc(F)c2)c2cc(Cl)ccc12)N1CCC2(CC1)OCc1ccccc12 [Example 219]
20 | 4.1 | NC(=O)Cn1cc(C(=O)N2CCC3(CC2)OCc2ccccc23)c2ccc(Cl)cc21 [Example 250, 2-[6-Chloro-3-(1′H,3H-spiro[2-benzofuran-1,4′-piperidin]-1′-ylcarbonyl)-1H-indol-1-yl]acetamide]
21 | 1.8 | O=C(c1cn(Cc2cnccn2)c2cc(Cl)ccc12)N1CCC2(CC1)OCc1ccccc12 [Example 234, 1′-{[6-Chloro-1-(pyrazin-2-ylmethyl)-1H-indol-3-yl]carbonyl}-3H-spiro[2-benzofuran-1,4′-piperidine]]
22 | 1.9 | O=C(c1cn(CCC2CCOCC2)c2cc(Cl)ccc12)N1CCC2(CC1)OCc1ccccc12 [Example 246, 1′-({6-Chloro-1-[2-(tetrahydro-2H-pyran-4-yl)ethyl]-1H-indol-3-yl}carbonyl)-3H-spiro[2-benzofuran-1,4′-piperidine]]
23 | 2.1 | CNCCNC(=O)Cn1cc(C(=O)N2CCC3(CC2)OCc2ccccc23)c2ccc(Cl)cc21 [Example 251, 2-[6-Chloro-3-(1′H,3H-spiro[2-benzofuran-1,4′-piperidin]-1′-ylcarbonyl)-1H-indol-1-yl]-N-[2-(methylamino)ethyl]acetamide]
24 | 2.2 | Cc1nc(Cn2cc(C(=O)N3CCC4(CC3)OCc3ccccc34)c3ccc(Cl)cc32)c(C)o1 [Example 242]
25 | 1.3 | CC(=O)N(C)CCn1cc(C(=O)N2CCC3(CC2)OCc2ccccc23)c2ccc(Cl)cc21 [Example 272, N-{2-[6-Chloro-3-(1′H,3H-spiro[2-benzofuran-1,4′-piperidin]-1′-ylcarbonyl)-1H-indol-1-yl]ethyl}-N-methylacetamide]
